The target of test [1] is T1, Tyrosine-protein phosphatase non-receptor type 1 (Homo sapiens, UniProt P18031).
T1 sequence (P18031 whole entry): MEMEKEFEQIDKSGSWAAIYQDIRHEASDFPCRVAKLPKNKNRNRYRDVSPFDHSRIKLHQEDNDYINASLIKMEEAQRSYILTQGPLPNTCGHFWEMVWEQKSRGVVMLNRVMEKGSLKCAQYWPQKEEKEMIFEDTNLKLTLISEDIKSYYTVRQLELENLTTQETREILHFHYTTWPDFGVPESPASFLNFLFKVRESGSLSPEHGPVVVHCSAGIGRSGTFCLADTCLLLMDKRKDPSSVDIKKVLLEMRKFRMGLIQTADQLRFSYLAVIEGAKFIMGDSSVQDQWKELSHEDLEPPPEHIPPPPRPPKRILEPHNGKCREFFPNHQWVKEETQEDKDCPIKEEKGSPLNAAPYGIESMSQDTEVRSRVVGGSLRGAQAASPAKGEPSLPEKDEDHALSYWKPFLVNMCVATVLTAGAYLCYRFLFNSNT
As to the kind of experiment: Inhibition of PTP1B (unknown origin) using DiFMUP as substrate by […] based assay.

Test [2] has as its target T2, Tyrosine-protein phosphatase non-receptor type 2 (Homo sapiens, UniProt P17706).
T2 sequence (P17706 whole entry): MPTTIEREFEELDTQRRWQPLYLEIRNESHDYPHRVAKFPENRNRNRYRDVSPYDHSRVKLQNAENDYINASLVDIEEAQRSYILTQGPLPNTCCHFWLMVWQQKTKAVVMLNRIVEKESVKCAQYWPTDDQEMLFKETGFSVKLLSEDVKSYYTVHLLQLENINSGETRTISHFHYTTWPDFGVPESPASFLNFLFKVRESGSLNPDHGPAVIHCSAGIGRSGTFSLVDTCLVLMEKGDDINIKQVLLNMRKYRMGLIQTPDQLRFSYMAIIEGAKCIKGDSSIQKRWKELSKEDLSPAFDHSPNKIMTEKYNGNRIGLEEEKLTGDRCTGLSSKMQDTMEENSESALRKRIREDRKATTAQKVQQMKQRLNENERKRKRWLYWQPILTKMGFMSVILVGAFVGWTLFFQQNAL
Nature of the test: Inhibition of PTPN2 (unknown origin) using DiFMUP as substrate by […] based assay.

The target of test [3] is T1, Tyrosine-protein phosphatase non-receptor type 1. As to the kind of experiment: Inhibition of 6xHis-tagged PTP1B (unknown origin) Escherichia coli BL21 (DE3)-RIL using OMFP as substrate incubated for 30 mins by fluorescence based assay.
Test [4] deals with Jurkat. Nature of the test: Effect on PTPN1 level in human Jurkat cells at 1 uM incubated for 24 hrs by label free proteomic analysis. The class given is functional, cell-based.
Test [5] has as its target von Hippel-Lindau disease tumor suppressor/Tyrosine-protein phosphatase non-receptor type 1 (Homo sapiens, UniProt P18031+P40337). As to the kind of experiment: PROTAC activity at VHL/PTP1B in human Jurkat cells assessed as induction of PTP1B degradation by Western blot analysis. It is filed as cell-based. On the technique in general: Immunoblotting shows a protein as a band on a membrane.

For test [6], the system named is Jurkat. Nature of the test: Effect on PTP1B level in human Jurkat cells at 1 uM incubated for 1 to 48 hrs by Western blot analysis. As to conditions: time 1-48 hrs. The class given is functional, cell-based.
Test [7] has as its target T3, von Hippel-Lindau disease tumor suppressor/Tyrosine-protein phosphatase non-receptor type 2 (Homo sapiens, UniProt P17706+P40337). Nature of the test: PROTAC activity at VHL/PTPN2 in IFN-gamma-stimulated human Jurkat cells assessed as increase in STAT1 phosphorylation at 0.1 to 10 uM incubated for 24 hrs by Western blot analysis. The class given is cell-based. As to conditions: dose 0.1-10 µM.
Target sequence in this assay (P40337 whole entry, looked up, one chain of several): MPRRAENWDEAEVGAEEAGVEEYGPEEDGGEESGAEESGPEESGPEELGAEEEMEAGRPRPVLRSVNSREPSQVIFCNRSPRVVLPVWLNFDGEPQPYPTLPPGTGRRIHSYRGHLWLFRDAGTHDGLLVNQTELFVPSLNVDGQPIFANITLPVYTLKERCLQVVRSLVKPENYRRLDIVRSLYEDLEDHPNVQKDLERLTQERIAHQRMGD

For test [8], the system named is Splenocyte. Nature of the test: Effect on PTP1B level in mouse splenocytes at 0.013 to 10 uM by Western blot analysis. Particulars: dose 0.013-10 µM. The class given is functional, cell-based.
Test [9] has as its system Jurkat. As to the kind of experiment: Effect on PTP1B level in human Jurkat cells at 0.1 to 10 uM incubated for 24 hrs by Western blot analysis. It is filed as functional, cell-based. As to conditions: dose 0.1-10 µM.
For test [10], the system named is B16-F10. Nature of the test: Effect on PTP1B level in mouse B16-F10 cells at 0.013 to 10 uM by Western blot analysis. The class given is functional, cell-based. As to conditions: dose 0.013-10 µM.
Test [11] addresses T4, von Hippel-Lindau disease tumor suppressor/Receptor-type tyrosine-protein phosphatase N2 (Mus musculus) (UniProt P40338+P80560). As to the kind of experiment: PROTAC activity at VHL/PTPN2 in mouse B16-F10 cells assessed as induction of PTPN2 degradation at 0.013 to 10 uM by Western blot analysis. It is filed as cell-based. As to conditions: dose 0.013-10 µM.
Another test deals with HepG2. Nature of the test: Effect on PTP1B level in human HepG2 cells at 0.013 to 10 uM by Western blot analysis. The class given is functional, cell-based. As to conditions: dose 0.013-10 µM.
The target of test [12] is T3, von Hippel-Lindau disease tumor suppressor/Tyrosine-protein phosphatase non-receptor type 2. Nature of the test: PROTAC activity at VHL/PTPN2 in human HepG2 cells assessed as induction of PTPN2 degradation at 0.013 to 10 uM by Western blot analysis. The class given is cell-based. As to conditions: dose 0.013-10 µM.
Target sequence in this assay (P40337 whole entry, looked up, one chain of several): as above
Test [13] relates to Jurkat. As to the kind of experiment: Effect on PTPN6 level in human Jurkat cells at 1 uM incubated for 24 hrs by label free proteomic analysis. It is filed as functional, cell-based.
Test [14] deals with Splenocyte. Nature of the test: Induction of cell proliferation in anti-CD3/CD28-stimulated mouse splenocytes incubated for 3 days by CFSE dye based flow cytometry. As to conditions: dose 1.25-5 µM, time 3.0 day. The class given is functional.
In test [15] the test system is Jurkat. Nature of the test: Effect on PTPN9 level in human Jurkat cells at 1 uM incubated for 24 hrs by label free proteomic analysis. It is filed as functional, cell-based.
In test [16] the target is T3, von Hippel-Lindau disease tumor suppressor/Tyrosine-protein phosphatase non-receptor type 2. As to the kind of experiment: PROTAC activity at VHL/PTPN2 in human Jurkat cells assessed as induction of PTPN2 degradation at 10 uM by Western blot analysis relative to control. The class given is cell-based.
Target sequence in this assay (P40337 whole entry, looked up, one chain of several): as above
The test system of test [17] is Splenocyte. As to the kind of experiment: Effect on SHP-2 level in mouse splenocytes cells at 0.013 to 10 uM by Western blot analysis. The class given is functional, cell-based. Particulars: dose 0.013-10 µM.
Test [18] deals with B16-F10. As to the kind of experiment: Effect on SHP-1 level in mouse B16-F10 cells at 0.013 to 10 uM by Western blot analysis. It is filed as functional, cell-based. As to conditions: dose 0.013-10 µM.
Test [19] relates to B16-F10. Nature of the test: Effect on SHP-2 level in mouse B16-F10 cells at 0.013 to 10 uM by Western blot analysis. The class given is functional, cell-based. Particulars: dose 0.013-10 µM.
Test [20] deals with B16-F10. Nature of the test: Inhibition of cell growth in IFN-gamma-treated mouse B16-F10 cells assessed as reduction in cell confluency measured upto 96 hrs. The class given is functional, cell-based. Particulars: dose 1.25-5 µM.
In test [21] the target is T3, von Hippel-Lindau disease tumor suppressor/Tyrosine-protein phosphatase non-receptor type 2. As to the kind of experiment: PROTAC activity at VHL/PTPN2 in human Jurkat cells assessed as increase in STAT1 phosphorylation incubated for 23 hrs followed by IFN-gamma stimulation for 1 hr by Western blot analysis. The class given is cell-based. Particulars: dose <= 10.0 µM, time 24.0 hrs.
Target sequence in this assay (P40337 whole entry, looked up, one chain of several): as above

In test [22] the test system is Jurkat. As to the kind of experiment: Effect on PTPN18 level in human Jurkat cells at 1 uM incubated for 24 hrs by label free proteomic analysis. The class given is functional, cell-based.
Test [23] concerns Jurkat. Nature of the test: Effect on PTPN11 level in human Jurkat cells at 1 uM incubated for 24 hrs by label free proteomic analysis. It is filed as functional, cell-based.
Test [24] has as its target T3, von Hippel-Lindau disease tumor suppressor/Tyrosine-protein phosphatase non-receptor type 2. Nature of the test: PROTAC activity at VHL/PTPN2 in IFN-gamma-stimulated human Jurkat cells assessed as induction of PTPN2 degradation at 0.1 to 10 uM incubated for 24 hrs by Western blot analysis. It is filed as cell-based. Particulars: dose 0.1-10 µM.
Target sequence in this assay (P40337 whole entry, looked up, one chain of several): as above
Test [25] has the same target. As to the kind of experiment: PROTAC activity at VHL/PTPN2 in human Jurkat cells assessed as induction of PTPN2 degradation at 1 uM by Western blot analysis relative to control. The class given is cell-based.
Target sequence in this assay (P40337 whole entry, looked up, one chain of several): as above
Test [26] addresses T4, von Hippel-Lindau disease tumor suppressor/Receptor-type tyrosine-protein phosphatase N2 (Mus musculus). Nature of the test: PROTAC activity at VHL/PTPN2 in mouse splenocytes assessed as induction of PTPN2 degradation at 0.013 to 10 uM by Western blot analysis. Particulars: Splenocyte, dose 0.013-10 µM. It is filed as cell-based.
The subject of test [27] is Splenocyte. Nature of the test: Effect on SHP-1 level in mouse splenocytes at 0.013 to 10 uM by Western blot analysis. It is filed as functional, cell-based. As to conditions: dose 0.013-10 µM.
Test [28] has as its target T3, von Hippel-Lindau disease tumor suppressor/Tyrosine-protein phosphatase non-receptor type 2. Nature of the test: PROTAC activity at VHL/PTPN2 in human Jurkat cells assessed as induction of PTPN2 degradation at 1 uM by Western blot analysis. It is filed as cell-based. Particulars: time 1-48 hrs, TDE = time-dependent effect.
The target is the same in test [29]. Nature of the test: PROTAC activity at VHL/PTPN2 in human Jurkat cells assessed as induction of PTPN2 degradation by Western blot analysis. It is filed as cell-based.
Target sequence in this assay (P40337 whole entry, one chain of several): as the sequence (P40337 whole entry, looked up, one chain of several) above
Test [30] relates to Jurkat. As to the kind of experiment: Effect on PTPN7 level in human Jurkat cells at 1 uM incubated for 24 hrs by label free proteomic analysis. It is filed as functional, cell-based.
In test [31] the test system is Jurkat. Nature of the test: Effect on STAT1 level in human Jurkat cells at 0.1 to 10 uM incubated for 24 hrs by Western blot analysis. Particulars: dose 0.1-10 µM. It is filed as functional, cell-based.
Test [32] deals with Jurkat. As to the kind of experiment: Effect on PTPN23 level in human Jurkat cells at 1 uM incubated for 24 hrs by label free proteomic analysis. The class given is functional, cell-based.
The target in test [33] is T3, von Hippel-Lindau disease tumor suppressor/Tyrosine-protein phosphatase non-receptor type 2. Nature of the test: PROTAC activity at VHL/PTPN2 in human Jurkat cells assessed as induction of PTPN2 degradation at 1 uM incubated for 24 hrs by label free proteomic analysis. The class given is cell-based.
Test [34] shares this target. As to the kind of experiment: PROTAC activity at VHL/PTPN2 in human Jurkat cells assessed as induction of PTPN2 degradation at 100 nM by Western blot analysis relative to control. It is filed as cell-based.

SMILES strings stand for the structures. The source made the active and inactive calls. No cut-off for these calls is given here.

Here are results for 3 compounds from ChEMBL document CHEMBL5390283, “Discovery of PVD-06 as a Subtype-Selective and Efficient PTPN2 Degrader” (J Med Chem, 2023).

T4 sequence (P40338 whole entry, looked up): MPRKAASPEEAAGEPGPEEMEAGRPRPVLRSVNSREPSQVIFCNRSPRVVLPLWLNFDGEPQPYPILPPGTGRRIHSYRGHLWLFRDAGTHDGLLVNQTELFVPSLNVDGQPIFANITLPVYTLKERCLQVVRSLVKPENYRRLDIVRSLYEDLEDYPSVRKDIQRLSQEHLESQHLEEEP
T4 sequence (P80560 whole entry, looked up): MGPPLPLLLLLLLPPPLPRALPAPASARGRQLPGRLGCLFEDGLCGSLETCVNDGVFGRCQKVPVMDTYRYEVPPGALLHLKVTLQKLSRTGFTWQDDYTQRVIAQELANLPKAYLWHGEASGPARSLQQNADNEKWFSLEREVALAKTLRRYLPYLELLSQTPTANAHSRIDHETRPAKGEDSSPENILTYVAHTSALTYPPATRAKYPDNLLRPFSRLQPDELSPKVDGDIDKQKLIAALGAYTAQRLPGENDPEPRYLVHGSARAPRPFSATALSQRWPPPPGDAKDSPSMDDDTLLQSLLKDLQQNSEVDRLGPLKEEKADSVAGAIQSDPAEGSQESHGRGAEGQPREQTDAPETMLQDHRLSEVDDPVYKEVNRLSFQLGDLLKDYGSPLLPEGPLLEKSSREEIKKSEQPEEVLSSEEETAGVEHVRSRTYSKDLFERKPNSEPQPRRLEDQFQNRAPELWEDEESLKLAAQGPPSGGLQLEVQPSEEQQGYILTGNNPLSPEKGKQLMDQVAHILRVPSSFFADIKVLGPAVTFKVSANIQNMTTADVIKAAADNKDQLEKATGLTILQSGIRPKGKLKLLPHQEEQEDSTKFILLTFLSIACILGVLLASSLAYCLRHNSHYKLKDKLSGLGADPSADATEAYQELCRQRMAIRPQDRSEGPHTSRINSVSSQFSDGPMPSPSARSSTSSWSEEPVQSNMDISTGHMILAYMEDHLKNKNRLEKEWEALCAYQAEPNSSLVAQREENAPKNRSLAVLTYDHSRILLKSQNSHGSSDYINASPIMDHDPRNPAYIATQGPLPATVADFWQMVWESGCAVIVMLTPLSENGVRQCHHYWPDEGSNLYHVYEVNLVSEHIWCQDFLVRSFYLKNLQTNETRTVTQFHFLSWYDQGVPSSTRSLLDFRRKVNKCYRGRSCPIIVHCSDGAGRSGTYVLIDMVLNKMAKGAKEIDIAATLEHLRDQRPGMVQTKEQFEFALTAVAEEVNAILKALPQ
Sequence of von Hippel-Lindau disease tumor suppressor/Tyrosine-protein phosphatase non-receptor type 1 (P40337 whole entry, one chain of several): as the sequence (P40337 whole entry, looked up, one chain of several) above

On to `O=C1CN(c2c(O)cc3ccc(Br)cc3c2F)S(=O)(=O)N1`, for which the half-maximal inhibitory concentration (IC50) is 8.39 nM in [1] and 11.4 nM in [2].
In test [3], `CC(C)(C)C(=O)Nc1ccc2c(c1)C(=O)C(=O)c1ccccc1-2` displayed an IC50 of 950 nM.
As for `Cc1ncsc1-c1ccc([C@H](C)NC(=O)[C@@H]2C[C@@H](O)CN2C(=O)[C@@H](NC(=O)CCCCCNC(=O)Cn2cc(-c3ccc4cc(O)c(N5CC(=O)NS5(=O)=O)c(F)c4c3)cn2)C(C)(C)C)cc1`, the outcome (with Jurkat [4]; with Jurkat [6]; in test [7]; in the test with Splenocyte [8]; in the test on Jurkat [9]; in the test on B16-F10 [10]) was inactive. Moreover, the outcome in the test on HepG2, with Jurkat [13], in the test on Jurkat [15], in the test with Splenocyte [17], in the test on B16-F10 [18] and in the test on B16-F10 [19] was inactive. For the same compound, the outcome (in the test on Jurkat [22]; in the test on Jurkat [23]; in test [24]; in the test on Splenocyte [27]; in the test on Jurkat [30]; in the test with Jurkat [31]) was inactive. In the test on Jurkat [32], the result was inactive. In addition, the values for the EC50 in test [5] and in test [29] were 13.1 µM and 217 nM, respectively. In addition, the result in test [7] (DEGRADER), in test [11], in test [12], in test [24] (DEGRADER), in [26] and in test [33] was Active. The Activity result in the test on Splenocyte [14] is “Dose-Dependent Effect”; in [16] it was 99%; in test [21] it was “Dose-Dependent Effect”; in test [25], 81%; in [28] it was “Tde”; in test [34] it was 43%. The inhibition result with B16-F10 [20] is “Dose-Dependent Effect”.

By IC50 is commonly meant the concentration that inhibits the measured activity by half. Higher therefore signals a need for much substance. As usually defined, the EC50 is the concentration that produces a half-maximal response.
